Assay results published in ChEMBL document CHEMBL3244349, “5,6,7,8-Tetrahydroguinolines. 4. Antiulcer and antisecretory activity of 5,6,7,8-tetrahydroquinolinenitriles and -thioamides” (1977).
Activity calls are given as the source filed them. The calls are words filed in the database; no cut-off is given here.

Key:
Rattus norvegicus [1] = assay: Antiulcer activity in po dosed Sprague-Dawley rat assessed as dose required to inhibition of cold-restraint induced gastric erosions after 3 hrs; format: functional, Stomach
Rattus norvegicus [2] = assay: Antisecretory activity in four-hours pylorus-ligated Sprague-Dawley rat assessed as inhibition of basal gastric secretion at 30 mg/kg administered intraduodenally; format: functional; conditions: Stomach; for inhibition in vivo at 30 mg/kg: 4 h, route intraduodenal
Rattus norvegicus [3] = assay: Antisecretory activity in four-hours pylorus-ligated Sprague-Dawley rat assessed as inhibition of basal gastric secretion at 10 mg/kg administered intraduodenally; format: functional, organism-based; design: dose 10 mg/kg; conditions: Stomach

Cc1cnc2c(c1)CCCC2C(=S)NCCCc1ccccc1.Cl (centres undefined)
Effective oral dose inhibiting gastric erosions (Rattus norvegicus [1]): 100 mg/kg | inhibition (Rattus norvegicus [2]): inactive

N#CC1CCCc2cccnc21 (centres undefined)
inhibition in vivo at 30 mg/kg (Rattus norvegicus [2]): < 70%

CNC(=S)C1(OC)CCCc2cc(C)cnc21 (centres undefined)
inhibition (Rattus norvegicus [2]): inactive

Cc1cnc2c(c1)CCCC2C(N)=O (centres undefined)
Effective oral dose inhibiting gastric erosions (Rattus norvegicus [1]): 100 mg/kg

Cc1cc2c([n+]([O-])c1)C(C(N)=S)CCC2 (centres undefined)
Effective oral dose inhibiting gastric erosions (Rattus norvegicus [1]): 100 mg/kg | inhibition (Rattus norvegicus [2]): inactive

Cc1cc2c([n+]([O-])c1)C(C#N)CCC2 (centres undefined)
Effective oral dose inhibiting gastric erosions (Rattus norvegicus [1]): 100 mg/kg | inhibition (Rattus norvegicus [2]): inactive

Cc1cnc2c(c1)CCCC2C#N.Cl (centres undefined)
Effective oral dose inhibiting gastric erosions (Rattus norvegicus [1]): 100 mg/kg | inhibition in vivo at 30 mg/kg (Rattus norvegicus [2]): < 70%

NC(=S)c1cccc2cccnc12
inhibition (Rattus norvegicus [3]): Active

N#CC1CCCc2ccc(-c3ccccc3)nc21 (centres undefined)
Effective oral dose inhibiting gastric erosions (Rattus norvegicus [1]): 100 mg/kg | inhibition (Rattus norvegicus [2]): inactive

Cl.NC(=S)C1CCCc2cccnc21 (centres undefined)
Effective oral dose inhibiting gastric erosions (Rattus norvegicus [1]): 3 mg/kg | inhibition (Rattus norvegicus [3]): Active

NC(=S)Cc1ccc2c(n1)CCCC2
Effective oral dose inhibiting gastric erosions (Rattus norvegicus [1]): 30 mg/kg | inhibition (Rattus norvegicus [2]): inactive

Cl.NC(=S)C1CCCc2cc3ccccc3nc21 (centres undefined)
Effective oral dose inhibiting gastric erosions (Rattus norvegicus [1]): 30 mg/kg | inhibition (Rattus norvegicus [2]): inactive

Cc1cnc2c(c1C)CCCC2C(N)=S (centres undefined)
inhibition in vivo at 30 mg/kg (Rattus norvegicus [2]): > 70%

NC(=O)C1CCCc2ccc(-c3ccccc3)nc21 (centres undefined)
Effective oral dose inhibiting gastric erosions (Rattus norvegicus [1]): 100 mg/kg

Cc1cc(C)c2c(n1)C(C(N)=S)CCC2 (centres undefined)
inhibition in vivo at 30 mg/kg (Rattus norvegicus [2]): < 70%

NC(=S)C1CCCc2cc3c(nc21)CCCC3 (centres undefined)
Effective oral dose inhibiting gastric erosions (Rattus norvegicus [1]): 100 mg/kg | inhibition in vivo at 30 mg/kg (Rattus norvegicus [2]): < 70%

Cc1cnc2c(c1)CCC2C(N)=S.Cl (centres undefined)
Effective oral dose inhibiting gastric erosions (Rattus norvegicus [1]): 30 mg/kg | inhibition (Rattus norvegicus [2]): inactive

Cc1cc(-c2ccccc2)c2c(n1)C(C(N)=S)CCC2 (centres undefined)
inhibition (Rattus norvegicus [2]): inactive

CNC(=S)C1CCCc2cc(C)cnc21 (centres undefined)
Effective oral dose inhibiting gastric erosions (Rattus norvegicus [1]): 30 mg/kg | inhibition in vivo at 30 mg/kg (Rattus norvegicus [2]): < 10%

Cl.NC(=S)C1CCc2cc3c(nc21)CCC3 (centres undefined)
Effective oral dose inhibiting gastric erosions (Rattus norvegicus [1]): 100 mg/kg | inhibition in vivo at 30 mg/kg (Rattus norvegicus [2]): < 70%

Cc1cnc2c(c1)CCCC2C1=NCCCN1.Cl (centres undefined)
Effective oral dose inhibiting gastric erosions (Rattus norvegicus [1]): 100 mg/kg | inhibition (Rattus norvegicus [2]): inactive

Cc1cnc2c(c1)CCCC2c1nc(C)cs1.Cl (centres undefined)
Effective oral dose inhibiting gastric erosions (Rattus norvegicus [1]): 100 mg/kg | inhibition (Rattus norvegicus [2]): inactive

CCCCc1ccc2c(n1)C(C(N)=S)CCC2 (centres undefined)
Effective oral dose inhibiting gastric erosions (Rattus norvegicus [1]): 100 mg/kg | inhibition in vivo at 30 mg/kg (Rattus norvegicus [2]): < 70%

NC(=S)C1CCCc2cc3c(nc21)CCCCC3 (centres undefined)
Effective oral dose inhibiting gastric erosions (Rattus norvegicus [1]): 30 mg/kg | inhibition in vivo at 30 mg/kg (Rattus norvegicus [2]): < 70%

Cl.NC(=S)C1CCCCc2cc3c(nc21)CCCCC3 (centres undefined)
Effective oral dose inhibiting gastric erosions (Rattus norvegicus [1]): 100 mg/kg | inhibition (Rattus norvegicus [2]): inactive

Cl.NC(=S)C1CCCc2cc3c(nc21)CCC3 (centres undefined)
Effective oral dose inhibiting gastric erosions (Rattus norvegicus [1]): 100 mg/kg | inhibition in vivo at 30 mg/kg (Rattus norvegicus [2]): < 70%

CCc1ccc2c(n1)C(C(N)=S)CCC2 (centres undefined)
inhibition in vivo at 30 mg/kg (Rattus norvegicus [2]): < 70%

CNC(=S)C1(C(=S)NC)CCc2cc3ccccc3nc21.Cl
Effective oral dose inhibiting gastric erosions (Rattus norvegicus [1]): 100 mg/kg | inhibition (Rattus norvegicus [2]): inactive

Cc1ccc2c(n1)C(C(N)=S)CCC2 (centres undefined)
Effective oral dose inhibiting gastric erosions (Rattus norvegicus [1]): 10 mg/kg | inhibition (Rattus norvegicus [3]): Active

CC1CNC2C(CCCC2C(N)=S)C1 (centres undefined)
inhibition (Rattus norvegicus [2]): inactive

Cc1cnc2c(c1)CCCC2C(=S)NCc1ccccc1.Cl (centres undefined)
Effective oral dose inhibiting gastric erosions (Rattus norvegicus [1]): 100 mg/kg | inhibition (Rattus norvegicus [2]): inactive

CC(=O)OC1(C(N)=S)CCCc2cc(C)cnc21 (centres undefined)
inhibition (Rattus norvegicus [2]): inactive

Cc1ccnc2c1CCCC2C(N)=S.Cl (centres undefined)
Effective oral dose inhibiting gastric erosions (Rattus norvegicus [1]): 30 mg/kg | inhibition (Rattus norvegicus [3]): Active

CCCCNC(=S)C1CCCc2cc(C)cnc21.Cl (centres undefined)
Effective oral dose inhibiting gastric erosions (Rattus norvegicus [1]): 100 mg/kg | inhibition in vivo at 30 mg/kg (Rattus norvegicus [2]): < 70%

CNC(=S)C1(C(=S)NC)CCCc2cccnc21.Cl
Effective oral dose inhibiting gastric erosions (Rattus norvegicus [1]): 100 mg/kg | inhibition (Rattus norvegicus [2]): inactive

Cc1cnc2c(c1)CCCC2(C)C(N)=S.Cl (centres undefined)
Effective oral dose inhibiting gastric erosions (Rattus norvegicus [1]): 100 mg/kg | inhibition (Rattus norvegicus [2]): inactive

CNC(=S)C1CCCc2cc3ccccc3nc21 (centres undefined)
inhibition in vivo at 30 mg/kg (Rattus norvegicus [2]): < 10%

Cc1cnc2c(c1)CCC(C)(C)C2C(N)=S.Cl (centres undefined)
Effective oral dose inhibiting gastric erosions (Rattus norvegicus [1]): 100 mg/kg | inhibition (Rattus norvegicus [2]): inactive

CNC(=S)C1CCCc2cccnc21.Cl (centres undefined)
Effective oral dose inhibiting gastric erosions (Rattus norvegicus [1]): 3 mg/kg | inhibition (Rattus norvegicus [3]): Active

CNC(=S)C1CCCc2c1ncc1c2CCCC1 (centres undefined)
Effective oral dose inhibiting gastric erosions (Rattus norvegicus [1]): 100 mg/kg | inhibition (Rattus norvegicus [2]): inactive

Cc1cnc2c(c1)CC(C)CC2C(N)=S.Cl (centres undefined)
Effective oral dose inhibiting gastric erosions (Rattus norvegicus [1]): 10 mg/kg | inhibition in vivo at 30 mg/kg (Rattus norvegicus [2]): > 70%

Cc1cnc2c(c1)CCCC2C(=S)N(C)C (centres undefined)
Effective oral dose inhibiting gastric erosions (Rattus norvegicus [1]): 100 mg/kg | inhibition (Rattus norvegicus [2]): inactive

Cc1cnc2c(c1)CCCC2C(=S)Nc1ccccc1 (centres undefined)
Effective oral dose inhibiting gastric erosions (Rattus norvegicus [1]): 100 mg/kg | inhibition (Rattus norvegicus [2]): inactive

Cc1cnc2c(c1)CCCC2C(N)=S.Cl (centres undefined) [TIQUINAMIDE HYDROCHLORIDE]
Effective oral dose inhibiting gastric erosions (Rattus norvegicus [1]): 10 mg/kg | inhibition (Rattus norvegicus [3]): Active

Cc1cnc2c(c1)C(C)CCC2C(N)=S.Cl (centres undefined)
Effective oral dose inhibiting gastric erosions (Rattus norvegicus [1]): 30 mg/kg | inhibition (Rattus norvegicus [3]): Active

NC(=S)c1cccc2c1NCCC2
inhibition (Rattus norvegicus [2]): inactive

Cc1cnc2c(c1)CCCC2C1=NCCN1.Cl (centres undefined)
Effective oral dose inhibiting gastric erosions (Rattus norvegicus [1]): 100 mg/kg | inhibition (Rattus norvegicus [2]): inactive

CNC(=S)C1(C(=S)NC)CCc2cc(C)cnc21
Effective oral dose inhibiting gastric erosions (Rattus norvegicus [1]): 100 mg/kg | inhibition (Rattus norvegicus [2]): inactive

Cl.NC(=S)C1CCCc2ccc(-c3ccccc3)nc21 (centres undefined)
Effective oral dose inhibiting gastric erosions (Rattus norvegicus [1]): 30 mg/kg | inhibition (Rattus norvegicus [2]): inactive

CC(C)(C)c1ccc2c(n1)C(C(N)=S)CCC2 (centres undefined)
Effective oral dose inhibiting gastric erosions (Rattus norvegicus [1]): 30 mg/kg | inhibition (Rattus norvegicus [2]): inactive

NC(=S)C1CCCc2c1ncc1c2CCCC1 (centres undefined)
Effective oral dose inhibiting gastric erosions (Rattus norvegicus [1]): 30 mg/kg | inhibition in vivo at 30 mg/kg (Rattus norvegicus [2]): < 70%
